Experimental data published in patent publication US20230140983A1, “PYRIDAZINE DERIVATIVES FOR MODULATING NUCLEIC ACID SPLICING” (REMIX THERAPEUTICS INC., priority 2020, published 2023).
Where a name gives a salt, the structure may show the parent alone. Read-outs that look alike come from different tables or passages of the source.

System: HTT
Assay: Splicing assay (RT-qPCR on cell lysates) monitoring HTT splice variants: AJ and CJ mRNA
Type: cell-based
Settings: concentration having 50% response
Description: Example 69: Exemplary Splicing Assay for Monitoring Expression Levels of Splice Variants
To set up 10 uL RT-qPCR reactions, cell lysates were transferred to 384-well qPCR plates containing the master mix according to the table below. The plates were sealed, gently vortexed, and spun down before the run. The volumes were adjusted accordingly in some instances where the reaction was carried in 20 uL. The table below summarizes the components of the RT-qPCR reactions:
The RT-qPCR reaction was performed using a QuantStudio (ThermoFisher) under the following fast cycling conditions. All samples and standards were analyzed at least in duplicate. In some instances, bulk room temperature (RT) step of 5-10 minutes was completed for all plates before proceeding with qPCR. The table below summarizes the PCR cycle:
The data analysis was performed by first determining the ΔCt vs the housekeeper gene. This ΔCt was then normalized against the DMSO control (ΔΔCt) and converted to RQ (relative quantification) using the 2^(−ΔΔCt) equation. The RQ were then converted to a percentage response by arbitrarily setting an assay window of 3.5 ΔCt for HTT-CJ and an assay window of 9 ΔCt for HTT-AJ. […] The percentage response was then fitted to the 4 parametric logistic equation to evaluate the concentration dependence of compound treatment. The increase in AJ mRNA is reported as AC50 (compound concentration having 50% response in AJ increase) while the decrease in CJ mRNA levels is reported as IC50 (compound concentration having 50% response in CJ decrease).

[1] = Table 8, decrease in CJ mRNA, read-out: HTT CJ AC50
[2] = Table 8, increase in AJ mRNA, read-out: HTT AJ AC50
[3] = Table 7, decrease in CJ mRNA, read-out: HTT CJ AC50
[4] = Table 7, increase in AJ mRNA, read-out: HTT AJ AC50

Row | SMILES | AC50 [1] | AC50 [2] | AC50 [3] | AC50 [4]
1 | CN(c1ccc(-c2ccc(-c3cnn(C)c3)c3cn[nH]c23)nn1)C1CCNCC1 [Compound 242, N-methyl-6-[4-(1-methylpyrazol-4-yl)-1H-indazol-7-yl]-N-(piperidin-4-yl)pyridazin-3-amine;trifluoroacetic acid] | > 10 µM | > 10 µM | – | –
2 | CC1(C)CC(Nc2ccc(-c3ccc(-c4cn[nH]c4)c4cn[nH]c34)nn2)CC(C)(C)N1 [Compound 275] | 0.1 to 1 µM | 1 to 10 µM | – | –
3 | C[C@H]1C[C@@H](N(C)c2ccc(-c3ccc(-c4cn[nH]c4)c4cn[nH]c34)nn2)CCN1 [Compound 160] | – | – | > 5 µM | > 5 µM
4 | c1n[nH]cc1-c1ccc(-c2ccc(O[C@@H]3C[C@H]4CC[C@@H](C3)N4)nn2)c2[nH]ncc12 [Compound 142, 7-[6-[(1R,3S,5S)-8-azabicyclo[3.2.1]octan-3-yloxy]pyridazin-3-yl]-4-(1H-pyrazol-4-yl)-1H-indazole] | – | – | < 0.5 µM | 0.5 to 5 µM
5 | CN1C[C@@H]2[C@H](C1)[C@H]2N(C)c1ccc(-c2ccc(-c3cn[nH]c3)c3ncsc23)nn1 [Compound 235, (exo)-N,3-dimethyl-N-{6-[4-(1H-pyrazol-4-yl)-1,3-benzothiazol-7-yl]pyridazin-3-yl}-3-azabicyclo[3.1.0]hexan-6-amine hydrochloride] | > 10 µM | > 10 µM | – | –
6 | c1nc2c(-c3cn[nH]c3)ccc(-c3ccc(N4CCC45CCNC5)nn3)c2s1 (stereo not drawn) [Compound 277] | > 10 µM | > 10 µM | – | –
7 | CC1(C)CC(Oc2ccc(-c3ccc(-c4cn[nH]c4)c4cn[nH]c34)nn2)CC(C)(C)N1 [Compound 138, 4-(1H-pyrazol-4-yl)-7-[6-[(2,2,6,6-tetramethylpiperidin-4-yl)oxy]pyridazin-3-yl]-1H-indazole] | – | – | < 0.5 µM | 0.5 to 5 µM
8 | CN(c1ccc(-c2ccc(-c3cn[nH]c3)c3nn[nH]c23)nn1)[C@@H]1C[C@H]2CC[C@@H](C1)N2 [Compound 118, (1R,3S,5S)—N-methyl-N-[6-[7-(1H-pyrazol-4-yl)-3H-1,2,3-benzotriazol-4-yl]pyridazin-3-yl]-8-azabicyclo[3.2.1]octan-3-amine] | – | – | 0.5 to 5 µM | 0.5 to 5 µM
9 | CN(c1ccc(-c2ccc(-c3ccn(C)c(=O)c3)c3ncsc23)nn1)C1CC(C)(C)NC(C)(C)C1 [Compound 279] | 1 to 10 µM | 1 to 10 µM | – | –
10 | c1n[nH]cc1-c1ccc(-c2ccc(N3CCC4(CCNCC4)C3)nn2)c2[nH]ncc12 [Compound 239] | > 10 µM | > 10 µM | – | –
11 | CN(c1ccc(-c2ccc(-c3cn[nH]c3)c3ncsc23)nn1)C1CC(C)(C)NC(C)(C)C1 [Compound 132, N-methyl-6-[4-(1H-pyrazol-4-yl)-1,3-benzothiazol-7-yl]-N-(2,2,6,6-tetramethylpiperidin-4-yl)pyridazin-3-amine] | – | – | < 0.5 µM | < 0.5 µM
12 | CN(c1ccc(-c2ccc(-c3ccc(=O)n(C)c3)c3ncsc23)nn1)C1CC(C)(C)NC(C)(C)C1 [Compound 281] | > 10 µM | > 10 µM | – | –
13 | c1nc2c(-c3cn[nH]c3)ccc(-c3ccc(N4CCC45CCCNC5)nn3)c2s1 (stereo not drawn) [Compound 276] | 1 to 10 µM | 1 to 10 µM | – | –
14 | CN(c1ccc(-c2ccc(-n3cccn3)c3cn[nH]c23)nn1)C1CCNCC1 [Compound 264] | > 10 µM | > 10 µM | – | –
15 | c1n[nH]cc1-c1ccc(-c2ccc(NC3CCNCC3)nn2)c2[nH]ncc12 [Compound 263, N-(piperidin-4-yl)-6-[4-(1H-pyrazol-4-yl)-1H-indazol-7-yl]pyridazin-3-amine hydrogen chloride] | > 10 µM | > 10 µM | – | –
16 | C[C@H]1C[C@H](N(C)c2ccc(-c3ccc(-c4cn[nH]c4)c4cc[nH]c34)nn2)CCN1 [Compound 157] | – | – | – | > 5 µM
17 | CN(c1ccc(-c2ccc(-c3cn[nH]c3)c3cn[nH]c23)nn1)C1CCNCC1 [Compound 273] | > 10 µM | > 10 µM | – | –
18 | CN(c1ccc(-c2ccc(-c3cnn(C)c3)c3cn[nH]c23)nn1)[C@@H]1C[C@H]2CC[C@@H](C1)N2 [Compound 143] | – | – | < 0.5 µM | 0.5 to 5 µM
19 | CCN(c1ccc(-c2ccc(-c3cn[nH]c3)c3cn[nH]c23)nn1)C1CCNCC1 [Compound 274] | > 10 µM | > 10 µM | – | –
20 | CN(c1ccc(-c2ccc(-c3cnn(C)c3)c3cn[nH]c23)nn1)C1CC(C)(C)NC(C)(C)C1 [Compound 243, N-methyl-6-[4-(1-methylpyrazol-4-yl)-1H-indazol-7-yl]-N-(2,2,6,6-tetramethylpiperidin-4-yl)pyridazin-3-amine; trifluoroacetic acid] | 1 to 10 µM | 1 to 10 µM | – | –

Row | SMILES | AC50 [1] | AC50 [2] | AC50 [3] | AC50 [4]
21 | c1n[nH]cc1-c1ccc(-c2ccc(N3CCCC4(CNC4)C3)nn2)c2[nH]ncc12 [Compound 251] | > 10 µM | > 10 µM | – | –
22 | COc1cc(-c2ccc(-c3ccc(N(C)C4CC(C)(C)NC(C)(C)C4)nn3)c3scnc23)ccn1 [Compound 280] | 0.1 to 1 µM | 0.1 to 1 µM | – | –
23 | CN(c1ccc(-c2ccc(-c3cn[nH]c3)c3cn[nH]c23)nn1)[C@@H]1C[C@H]2CC[C@@H](C1)N2 [Compound 104, (1R,3S,5S)—N-methyl-N-[6-[4-(1H-pyrazol-4-yl)-1H-indazol-7-yl]pyridazin-3-yl]-8-azabicyclo[3.2.1]octan-3-amine] | – | – | – | < 0.5 µM
24 | c1n[nH]cc1-c1ccc(-c2ccc(N3C[C@H]4CNC[C@H]4C3)nn2)c2[nH]ncc12 [Compound 254] | > 10 µM | > 10 µM | – | –
25 | C[C@H]1C[C@@H](N(C)c2ccc(-c3ccc(-c4cn[nH]c4)c4cc[nH]c34)nn2)CCN1 [Compound 108, N-methyl-N-[(2S,4S)-2-methylpiperidin-4-yl]-6-[4-(1H-pyrazol-4-yl)-1H-indol-7-yl]pyridazin-3-amine] | – | – | > 5 µM | > 5 µM
26 | c1n[nH]cc1-c1ccc(-c2ccc(N3CCC4(CC3)CNC4)nn2)c2[nH]ncc12 [Compound 238] | > 10 µM | > 10 µM | – | –
27 | C[C@H]1C[C@H](N(C)c2ccc(-c3ccc(-n4cccn4)c4cc[nH]c34)nn2)CCN1 [Compound 158] | – | – | > 5 µM | > 5 µM
28 | C[C@@H]1C[C@H](N(C)c2ccc(-c3ccc(-n4cccn4)c4nn[nH]c34)nn2)CCN1 [Compound 117, N-methyl-N-[(2R,4R)-2-methylpiperidin-4-yl]-6-[7-(pyrazol-1-yl)-3H-1,2,3-benzotriazol-4-yl]pyridazin-3-amine] | – | – | > 5 µM | > 5 µM
29 | C[C@H]1C[C@@H](N(C)c2ccc(-c3ccc(-n4cccn4)c4cn[nH]c34)nn2)CCN1 [Compound 159] | – | – | > 5 µM | > 5 µM
30 | CN(c1ccc(-c2ccc(-c3cn[nH]c3)c3cn[nH]c23)nn1)C1CC(C)(C)NC(C)(C)C1 [Compound 137, N-methyl-6-[4-(1H-pyrazol-4-yl)-1H-indazol-7-yl]-N-(2,2,6,6-tetramethylpiperidin-4-yl)pyridazin-3-amine] | – | – | 0.5 to 5 µM | 0.5 to 5 µM
31 | CN(c1ccc(-c2ccc(-c3cn[nH]c3)c3cn[nH]c23)nn1)[C@H]1C[C@]2(C)CC[C@](C)(C1)N2 [Compound 146, N,1,5-trimethyl-N-[6-[4-(1H-pyrazol-4-yl)-1H-indazol-7-yl]pyridazin-3-yl]-8-azabicyclo[3.2.1]octan-3-amine] | – | – | < 0.5 µM | < 0.5 µM
32 | CN(c1ccc(-c2ccc(-c3cn[nH]c3)c3ccsc23)nn1)C1CC(C)(C)NC(C)(C)C1 [Compound 131, N-methyl-6-[4-(1H-pyrazol-4-yl)-1-benzothiophen-7-yl]-N-(2,2,6,6-tetramethylpiperidin-4-yl)pyridazin-3-amine] | – | – | > 5 µM | > 5 µM
33 | CN(c1ccc(-c2ccc(-c3c[nH]nn3)c3cn[nH]c23)nn1)[C@@H]1C[C@H]2CC[C@@H](C1)N2 [Compound 141] | – | – | < 0.5 µM | < 0.5 µM
34 | [2H]C([2H])([2H])N(c1ccc(-c2ccc(-c3cn[nH]c3)c3ncsc23)nn1)C1CC(C)(C)NC(C)(C)C1 [Compound 231, N-(2H3)methyl-6-[4-(1H-pyrazol-4-yl)-1,3-benzothiazol-7-yl]-N-(2,2,6,6-tetramethylpiperidin-4-yl)pyridazin-3-amine] | 0.1 to 1 µM | 0.1 to 1 µM | – | –
35 | c1cc(-c2ccc(N3CCCN3)c3cn[nH]c23)nnc1N[C@@H]1C[C@H]2CC[C@@H](C1)N2 [Compound 278] | < 0.1 µM | 0.1 to 1 µM | – | –
36 | CN1C[C@@H]2CN(c3ccc(-c4ccc(-c5cn[nH]c5)c5cn[nH]c45)nn3)C[C@@H]2C1 [Compound 255] | > 10 µM | > 10 µM | – | –
37 | CC1C[C@@H](N(C)c2ccc(-c3ccc(-n4cccn4)c4cc[nH]c34)nn2)CCN1 (stereo in doubt) [Compound 111, N-methyl-N-[(2R,4S)-2-methylpiperidin-4-yl]-6-[4-(pyrazol-1-yl)-1H-indol-7-yl]pyridazin-3-amine] | – | – | > 5 µM | > 5 µM
38 | CN(c1ccc(-c2ccc(-c3cnnc(O)c3)c3scnc23)nn1)C1CC(C)(C)NC(C)(C)C1 [Compound 234] | > 10 µM | > 10 µM | – | –
39 | C[C@@H]1C[C@H](N(C)c2ccc(-c3ccc(-c4cn[nH]c4)c4nn[nH]c34)nn2)CCN1 [Compound 115] | – | – | – | > 5 µM
